pIC50: −log10 of the molar value. Active and inactive are the calls of the source. No cut-off for these calls is given here.

Among the data in ChEMBL document CHEMBL5634096, “Design, synthesis and bioevaluation of PI3Kα-selective inhibitors as potential colorectal cancer drugs” (Eur J Med Chem, 2023) are IC50 and Activity values, retold here.

Data set [1] in a line: Cytotoxicity against human NCM460 cells assessed as reduction in cell viability incubated for 24 to 48 hrs by CCK-8 assay. The class given is toxicity, cell-based.
For a further data set, the system named is HCT-116. The data set is described as follows: Antiproliferative activity against human HCT-116 cells expressing PIK3CA with H1047R mutation assessed as reduction in cell viability incubated for 24 to 48 hrs by CCK-8 assay. The class given is functional, cell-based.
A further data set has as its system MKN-45. Nature of the data set: Antiproliferative activity against human MKN-45 cells assessed as reduction in cell viability at 10 uM incubated for 24 to 48 hrs by CCK-8 assay. It counts as functional, cell-based. The note with it: time lower […], time upper 48.0 hrs. For orientation: Tetrazolium dyes change colour on reduction, which living cells bring about.

Another data set addresses Cytochrome P450 2D6 (Homo sapiens, UniProt P10635). The data set is described as follows: Inhibition of CYP2D6 in human liver microsomes using dextromethorphan as substrate pre-incubated for 30 mins followed by substrate addition and measured after 15 mins in presence of NADPH by LC/MS analysis. The class given is ADME, Microsome. A general note: Liver microsomes are vesicles of endoplasmic reticulum, rich in cytochrome P450 enzymes.

The target of data set [2] is Phosphatidylinositol 4,5-bisphosphate 3-kinase catalytic subunit gamma isoform (Homo sapiens, UniProt P48736). Nature of the data set: Inhibition of PI3Kgamma (unknown origin) by ADP-Glo luminescent kinase assay.
Sequence of Phosphatidylinositol 4,5-bisphosphate 3-kinase catalytic subunit gamma isoform (P48736 whole entry, canonical isoform): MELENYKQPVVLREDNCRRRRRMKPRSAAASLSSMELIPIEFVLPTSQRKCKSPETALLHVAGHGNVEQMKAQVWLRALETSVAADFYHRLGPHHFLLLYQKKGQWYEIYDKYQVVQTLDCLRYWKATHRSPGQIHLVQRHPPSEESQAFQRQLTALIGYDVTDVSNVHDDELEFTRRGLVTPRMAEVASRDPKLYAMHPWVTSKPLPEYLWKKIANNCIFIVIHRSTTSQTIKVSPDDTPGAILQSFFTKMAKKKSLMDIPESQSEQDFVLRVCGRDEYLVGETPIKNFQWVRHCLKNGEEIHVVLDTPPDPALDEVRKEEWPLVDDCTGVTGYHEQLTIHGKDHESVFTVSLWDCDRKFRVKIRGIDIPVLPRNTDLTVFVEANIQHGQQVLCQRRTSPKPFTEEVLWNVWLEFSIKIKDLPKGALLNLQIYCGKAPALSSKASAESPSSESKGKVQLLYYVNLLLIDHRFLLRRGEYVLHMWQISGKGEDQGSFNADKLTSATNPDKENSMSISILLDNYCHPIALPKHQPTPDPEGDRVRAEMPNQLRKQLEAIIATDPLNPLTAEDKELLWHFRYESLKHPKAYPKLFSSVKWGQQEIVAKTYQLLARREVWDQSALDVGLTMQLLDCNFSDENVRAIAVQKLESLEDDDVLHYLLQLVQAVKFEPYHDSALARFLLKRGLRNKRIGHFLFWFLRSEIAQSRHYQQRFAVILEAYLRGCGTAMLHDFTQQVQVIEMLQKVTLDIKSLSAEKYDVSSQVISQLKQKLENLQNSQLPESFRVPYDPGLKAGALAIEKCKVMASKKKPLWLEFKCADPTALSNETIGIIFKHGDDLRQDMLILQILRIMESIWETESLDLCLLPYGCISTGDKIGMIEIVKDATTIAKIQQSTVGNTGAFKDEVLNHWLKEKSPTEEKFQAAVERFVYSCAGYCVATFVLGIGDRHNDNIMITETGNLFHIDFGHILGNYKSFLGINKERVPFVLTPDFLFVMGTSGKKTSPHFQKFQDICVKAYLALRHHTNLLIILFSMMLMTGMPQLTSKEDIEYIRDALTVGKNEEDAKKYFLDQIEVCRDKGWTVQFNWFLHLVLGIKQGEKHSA

Sequence of Cytochrome P450 2D6 (P10635 whole entry): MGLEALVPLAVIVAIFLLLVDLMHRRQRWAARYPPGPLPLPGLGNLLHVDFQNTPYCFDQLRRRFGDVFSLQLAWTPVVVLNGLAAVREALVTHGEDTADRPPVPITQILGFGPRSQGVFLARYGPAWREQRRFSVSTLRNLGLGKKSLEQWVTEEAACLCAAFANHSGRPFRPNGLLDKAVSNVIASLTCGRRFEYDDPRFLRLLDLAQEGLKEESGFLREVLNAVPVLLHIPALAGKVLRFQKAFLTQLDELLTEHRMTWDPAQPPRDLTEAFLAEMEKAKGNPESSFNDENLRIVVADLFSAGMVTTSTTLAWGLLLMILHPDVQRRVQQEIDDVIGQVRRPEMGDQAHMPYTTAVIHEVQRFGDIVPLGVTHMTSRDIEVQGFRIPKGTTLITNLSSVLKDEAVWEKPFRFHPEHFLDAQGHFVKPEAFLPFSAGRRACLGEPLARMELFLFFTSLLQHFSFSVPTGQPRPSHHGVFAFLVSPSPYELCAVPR

Turning to `Nc1nc2cc(-c3ccc4ncc(N5C[C@@H]6OCCO[C@@H]6C5)nc4c3)ccc2o1`, the negative-log IC50 (pIC50) is 4.30 in data set [1], 5.14 in the data set on HCT-116, less than 5.00 at Cytochrome P450 2D6 and 6.70 in data set [2]. Further, the outcome in the data set on MKN-45 was Active.

The pIC50 is the negative decadic logarithm of the IC50, by convention in mol/L.
